Results reported in patent US20090018166A1, “New Pyridine Analogues X 161” (ASTRAZENECA AB, priority 2007, published 2009).

Each molecule was assayed against T1, P2Y12 receptor (Homo sapiens, UniProt Q9H244) (assay: Functional inhibition of 2-Me-S-ADP induced P2Y12 signalling (35S-GTPγS binding, membranes from P2Y12 transfected CHO-cells)). Conditions: 35S-GTPγS, EC80 of 2-methyl-thio-adenosine diphosphate, P2Y12 CHO membranes; value given in each example; read-out: GTPγS(IC50 μM).
T1 construct: expressed in transfected cells; host or cells: CHO cells (membranes)
T1 sequence (Q9H244 whole entry): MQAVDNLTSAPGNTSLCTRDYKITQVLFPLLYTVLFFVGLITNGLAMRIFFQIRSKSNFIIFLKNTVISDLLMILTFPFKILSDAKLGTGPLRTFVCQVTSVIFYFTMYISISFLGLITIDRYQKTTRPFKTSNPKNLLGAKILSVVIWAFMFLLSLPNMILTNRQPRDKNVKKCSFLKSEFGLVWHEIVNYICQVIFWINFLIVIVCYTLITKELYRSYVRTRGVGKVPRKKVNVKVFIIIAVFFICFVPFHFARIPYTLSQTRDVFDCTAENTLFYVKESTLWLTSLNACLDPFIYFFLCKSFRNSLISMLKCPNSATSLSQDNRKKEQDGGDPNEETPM
Format: biochemical
Protocol: Functional inhibition of- the P2Y12 receptor can be measured by in vitro assays using cell membranes from P2Y12 transfected CHO-cells, the methodology is indicated below.
Functional inhibition of 2-Me-S-ADP induced P2Y12 signalling: 5 μg of membranes were diluted in 200 μl of 200 mM NaCl, 1 mM MgCl2, 50 mM HEPES (pH 7.4), 0.01% BSA, 30 μg/ml saponin and 10 μM GDP. To this was added an EC80 concentration of agonist (2-methyl-thio-adenosine diphosphate), the required concentration of test compound and 0.1 μCi ^35S-GTPγS. The reaction was allowed to proceed at 30° C. for 45 min. Samples were then transferred on to GF/B filters using a cell harvester and washed with wash buffer (50 mM Tris (pH 7.4), 5 mM MgCl2, 50 mM NaCl). Filters were then covered with scintilant and counted for the amount of ^35S-GTPγS retained by the filter. Maximum activity was that determined in the presence of the agonist and minimum activity in the absence of the agonist following subtraction of the value determined for non-specific activity. The effect of compounds at various concentrations was plotted according to the equation
y=A+((B−A)/(1+((C/x)̂D)))
and IC50 estimated where A is the bottom plateau of the curve i.e. the final minimum y value B is the top of the plateau of the curve i.e. the final maximum y value C is the x value at the middle of the curve. This represents the log EC50 value when A+B=100 D is the slope factor. x is the original known x values. Y is the original known y values.

Row | IC50 [µM] | SMILES
1 | 0.017 | CCCCC(=O)c1cc(C#N)c(N2CCC(C(=O)NS(=O)(=O)N(C)c3ccccc3)CC2)nc1CN1CCCC1=O [Example 22, 1-{3-Cyano-6-[(2-oxopyrrolidin-1-yl)methyl]-5-pentanoylpyridin-2-yl}-N-{[methyl(phenyl)amino]sulfonyl}piperidine-4-carboxamide]
2 | 0.042 | CN(c1ccccc1)S(=O)(=O)NC(=O)C1CCN(c2nc(CN3CCCC3=O)c(C(=O)C3CC3)cc2C#N)CC1 [Example 23, 1-{3-Cyano-5-(cyclopropylcarbonyl)-6-[(2-oxopyrrolidin-1-yl)methyl]pyridin-2-yl}-N-{[methyl(phenyl)amino]sulfonyl}piperidine-4-carboxamide]
3 | 0.428 | N#Cc1cc(C(=O)C2CC2)c(CN2CCCC2=O)nc1N1CCC(C(=O)NS(=O)(=O)CC2CCC2)CC1 [Example 24, 1-{3-Cyano-5-(cyclopropylcarbonyl)-6-[(2-oxopyrrolidin-1-yl)methyl]pyridin-2-yl}-N-[(cyclobutylmethyl)sulfonyl]piperidine-4-carboxamide]
4 | 0.026 | CN(c1ccc(F)cc1)S(=O)(=O)NC(=O)C1CCN(c2nc(CN3CCCC3=O)c(C(=O)C3CC3)cc2C#N)CC1 [Example 25, 1-{3-Cyano-5-(cyclopropylcarbonyl)-6-[(2-oxopyrrolidin-1-yl)methyl]pyridin-2-yl}-N-{[(4-fluorophenyl)(methyl)amino]sulfonyl}piperidine-4-carboxamide]
5 | 0.017 | C=CCCC(=O)c1cc(C#N)c(N2CCC(C(=O)NS(=O)(=O)Cc3ccccc3)CC2)nc1CN1CCCC1=O [Example 26, N-(benzylsulfonyl)-1-{3-cyano-6-[(2-oxopyrrolidin-1-yl)methyl]-5-pent-4-enoylpyridin-2-yl}piperidine-4-carboxamide]
6 | 0.02 | C=CCCC(=O)c1cc(C#N)c(N2CCC(C(=O)NS(=O)(=O)CC3CCCC3)CC2)nc1CN1CCCC1=O [Example 27, 1-{3-cyano-6-[(2-oxopyrrolidin-1-yl)methyl]-5-pent-4-enoylpyridin-2-yl}-N-[(cyclopentylmethyl)sulfonyl]piperidine-4-carboxamide]
7 | 0.022 | C=CCCC(=O)c1cc(C#N)c(N2CCC(C(=O)NS(=O)(=O)N(C)c3ccc(F)cc3)CC2)nc1CN1CCCC1=O [Example 28, 1-{3-cyano-6-[(2-oxopyrrolidin-1-yl)methyl]-5-pent-4-enoylpyridin-2-yl}-N-{[(4-fluorophenyl)(methyl)amino]sulfonyl}piperidine-4-carboxamide]
8 | 0.013 | C=CCCC(=O)c1cc(C#N)c(N2CCC(C(=O)NS(=O)(=O)N(C)c3ccccc3)CC2)nc1CN1CCCC1=O [Example 29, 1-{3-cyano-6-[(2-oxopyrrolidin-1-yl)methyl]-5-pent-4-enoylpyridin-2-yl}-N-{[methyl(phenyl)amino]sulfonyl}piperidine-4-carboxamide]
9 | 0.062 | CCCC(=O)c1cc(Cl)c(N2CCC(C(=O)NS(=O)(=O)Cc3ccccc3)CC2)nc1CN1CCCC1=O [Example 30, N-(Benzylsulfonyl)-1-{5-butyryl-3-chloro-6-[(2-oxopyrrolidin-1-yl)methyl]pyridin-2-yl}piperidine-4-carboxamide]
10 | 0.109 | CCCC(=O)c1cc(Cl)c(N2CCC(C(=O)NS(=O)(=O)N(C)c3ccc(F)cc3)CC2)nc1CN1CCCC1=O [Example 31, 1-{5-Butyryl-3-chloro-6-[(2-oxopyrrolidin-1-yl)methyl]pyridin-2-yl}-N-{[(4-fluorophenyl)(methyl)amino]sulfonyl}piperidine-4-carboxamide]
11 | 0.055 | CCCC(=O)c1cc(Cl)c(N2CCC(C(=O)NS(=O)(=O)Cc3ccc(C)cc3)CC2)nc1CN1CCCC1=O [Example 32, 1-{5-Butyryl-3-chloro-6-[(2-oxopyrrolidin-1-yl)methyl]pyridin-2-yl}-N-[(4-methylbenzyl)sulfonyl]piperidine-4-carboxamide]
